Test results taken from US20240173325A1, “METHODS FOR TREATING SPINAL MUSCULAR ATROPHY” (Genentech, Inc., priority 2022, published 2024).
“Also recorded” adds a separate entry of the source. Where two headings read alike, the source gives them in different places.

Experiments:
rabbit fetuses = details: cited from earlier work
clinical = experiment: clinical; design: species or system human; details: in vivo
Description: The fetal subject assigned to this treatment plan received risdiplam through the carrier after all basic organ systems of the fetal subject had substantially completed fundamental embryogenesis in its third trimester of development in a range of from about thirty-two and a half weeks to its delivery from the carrier at about thirty-eight and a half weeks gestation. During this period, risdiplam was administered to the fetal subject through a carrier treatment cycle in which a single daily dose of 5 mg of risdiplam was administered orally to the carrier of the fetal subject.
Risdiplam trough drug levels were obtained from the carrier and the subject as the neonatal subject at time points represented in Table 2A and Table 2B from 32.5 weeks gestation prior to administration of risdiplam to the carrier through 43 days post-delivery. The risdiplam drug levels detected in plasma (ng/mL) of the carrier and the neonatal subject were determined by liquid chromatography-tandem mass spectroscopy (LC-MS/MS).
Since it was determined that a level of the risdiplam in the cord blood of the neonatal subject was less than about 100 ng/mL or about 0.1 mg/L when the neonatal subject was bom, the neonatal treatment cycle was initiated. The neonatal treatment cycle began 8 days after birth (d8) and included administering risdiplam to the neonatal subject at a single daily dose of 0.15 mg/kg.
In addition, in Table 3, blood samples for risdiplam PK and PD were collected from the carrier prior to the first dose of the risdiplam and 24-hours post- dose of the risdiplam. PK/PD samples were collected from the carrier every two weeks for up to six weeks after delivery to assess risdiplam clearance. At the time of delivery, samples of umbilical cord blood and amniotic fluid were collected to assess risdiplam exposure to the fetal subject in utero. Collection of the cord blood and the amniotic fluid could have also included collection of the cord blood and the amniotic fluid during pregnancy of the carrier if an amniocentesis was deemed to be needed.

[1] = Treatment emergent adverse events and safety monitoring of carrier, fetal subject and neonatal subject; type: in vivo, human; design: key to Serious (Y/N) / Study Term (Y/N): “Y” refers to yes; “N” refers to no; details: for Adverse Event or MedDRA Term: exposed in utero, oral 0.15 mg/kg from 8 days post-birth, 0.15 mg/kg
From the text: X1 included routine monitoring of the carrier for the third trimester, specifically with regards to development of hypertension and features of pre-eclampsia or HELLP syndrome, with related blood and urine testing. X1 also included monitoring nausea, vomiting, or dehydration in the carrier and placental integrity and amniotic fluid volume. X1 further included fetal monitoring for fetal growth, organ system development, and fetal well- being and any signs of organ maldevelopment, especially in the brain, heart, kidney, and liver. A baseline pre-treatment full anatomical ultrasound study and growth scan were performed and subsequent ultrasonography occurred at three and six weeks before delivery of the fetal subject as the neonatal subject.
Also in Table 3, “X2” included safety labs for the carrier, such as the CBC screening, the CMP screening, and the UA, to assess potential toxicity from risdiplam, which were collected before dosing and then prior to delivery. The safety labs were collected at the baseline before dosing, then every 3-4 weeks up to delivery, including pre-operatively prior to the scheduled cesarean section. More frequent testing may occur if clinically indicated.
In Table 4, the “X5” post-delivery PK/PD collection and safety labs of the neonatal subject included CBC screening, CMP screening, and UA, and such safety labs could be repeated if the results are deemed abnormal as compared to a healthy individual.
Table 5 summarizes results of the carrier and the fetal subject clinical assessments during the pregnancy of the carrier when exposed to risdiplam and in the neonatal subject for 6 weeks following delivery, for a minimum of 30 days following the last dose of risdiplam.
Specifically, Table 5 depicts the treatment emergent adverse events, seriousness of the event, intensity of the adverse event, relatedness of the adverse event to administration of the risdiplam, study term, and start and end dates for the adverse event the detected from this Example.
Each adverse event term is associated with a Medical Dictionary for Regulatory Activity (or MedDRA) term and the intensity is categorized based on the CTCAE grading. In Table 5, “Y” refers to yes and “N” refers to no and the intensity is measured from a lowest level of intensity or “I” to a highest level of intensity or “V.” “VSD” is a ventricular septal defect, “GERD” is gastroesophageal reflux disease, and “NICU” refers to neonatal intensive care unit.

Risdiplam level in amniotic fluid (AF) (clinical; female, human): 5.09 ng/mL | Risdiplam level in plasma, venous (V) (clinical; female, human): 15.6 ng/mL | concentration at 43 d postnatal (clinical; female, human): 0.4 ng/mL | Risdiplam level in plasma (clinical; female, human, 20 d postnatal): 0.7 ng/mL | Risdiplam level in plasma (clinical; female, human, 29 d postnatal): 0.6 ng/mL | Kp (clinical; female, human, Amniotic fluid risdiplam level relative to carrier plasma venous level): ~0.33 | Kp (clinical; female, human, Cord venous and arterial plasma risdiplam level relative to carrier plasma level): ~0.69 | Level of risdiplam in cord blood (clinical; human): less than 100 ng/mL | Risdiplam level in cord plasma, arterial (A) (clinical; human): 10.4 ng/mL | Risdiplam level in cord plasma, venous (V) (clinical; human): 11.2 ng/mL | half-life (clinical; human): 46 h | Risdiplam level in plasma (clinical; human, 8 d postnatal): 0.6 ng/mL | concentration at 43 d postnatal (clinical; human, po, 0.15 mg/kg/day): 62 ng/mL | Risdiplam trough level in plasma (clinical): BLQ* | Placental transfer from carrier to fetal subject (clinical; po): crosses the placenta
SMILES: Cc1cn2nc(-c3cc(=O)n4cc(N5CCNC6(CC6)C5)ccc4n3)cc(C)c2n1 [risdiplam, 7-(4,7-diazaspiro[2.5]octan-7-yl)-2-(2,8-dimethylimidazo[1,2-b]pyridazin-6-yl)-4H-pyrido[1,2-a]pyrimidin-4-one]
Findings in rabbit fetuses (rabbit fetuses; at about 12 mg/kg/day): hydrocephalus, an abnormally small gall bladder, and lung variations | Findings in rabbit fetuses (rabbit fetuses; dams treated at about 1 mg/kg/day to about 12 mg/kg/day): reduced weight gain and cranium or brain variations | Serious (Y/N) ([1]; carrier adverse events): N | Study Term (Y/N) ([1]; carrier adverse events): N | Overall safety and tolerability ([1]; carrier and subject as fetal and neonatal subject): no drug-related adverse events; also recorded: safe and well tolerated | Surveillance labs during pregnancy ([1]; carrier while on risdiplam): normal until proteinuria was detected at 36WG | Fetal ultrasound assessments ([1]; fetal subject during carrier treatment): unremarkable | Biophysical profiles ([1]; fetal subject, each time point): normal | CBC, CMP, and U/A ([1]; neonatal subject): normal | Study Term (Y/N) ([1]; neonatal subject adverse events): N | Adverse Event or MedDRA Term ([1]; neonatal subject, adverse event number 1): Respiratory | Adverse Event or MedDRA Term ([1]; neonatal subject, adverse event number 2): Congenital disorder | Adverse Event or MedDRA Term ([1]; neonatal subject, adverse event number 3): Weight gain
